What all share (test): growth of human tumour cells (NCI), 48 h
Test [1] has as its system BT-549 breast.
Test [2] relates to CAKI-1 renal.
Test [3] deals with CCRF-CEM leukemia.
In test [4] the test system is COLO 205 colon.
In test [5] the test system is HS 578T breast.
Test [6] deals with KM12 colon.
Test [7] deals with NCI-H23 lung.
In test [8] the test system is PC-3 prostate.
Test [9] concerns RXF 393 renal.
For test [10], the system named is SF-268 CNS.

Where “and” joins values, the source holds several entries; their conditions need not be identical. Equal entries are not always repeated.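 Following 48 hours of exposure in 96-well plates, responses at five concentrations were used to interpolate endpoints linearly. Here, GI50 denotes the concentration required for 50% inhibition of growth. The concentration for full growth arrest is given as TGI.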 Bounds are passed on as bounds.

For `CCn1c(-c2nonc2N)nc2c(C#CC(C)(C)O)ncc(OCC3CCNCC3)c21`, the GI50 in test [1] is 11 µM; in test [2], 17.2 µM; in [3], 4.5 µM; in test [4] it was 4.84 µM; in test [5], 3.83 µM; in test [6] it was 7.58 µM. In addition, the GI50 in test [7] was over 19.2 µM; in [8], 7.48 µM; in test [9], 2.54 µM; in test [10], 9.41 µM. Also, the TGI was over 25 µM in test [1]; over 25 µM in [2]; over 25 µM in [3]; 15.2 µM in test [4]; 15.4 µM in test [5]; over 25 µM in test [6]. Moreover, the TGI in test [7] is over 25 µM; in [8] it was over 25 µM; in test [9] it was 7.28 µM; in [10] it was over 25 µM.

For the molecule `CC[C@@]1(O)C(=O)N(CCN(C)C)Cc2c1cc1n(c2=O)Cc2cc3ccccc3nc2-1`, the GI50 in test [1] is 42.5 µM; in test [2], 4.27 µM; in [3], 4.74 µM; in [4], over 91.6 µM; in test [5] it was over 100 µM; in [6] it was 12.5 µM. In addition, the GI50 in [7] was 8.35 µM; in test [8], 41.3 µM; in [9] it was 71.4 µM; in test [10], 3.59 µM. In addition, the TGI in test [1] is over 100 µM; in [2] it was over 100 µM; in test [3], over 100 µM; in test [4] it was over 100 µM; in [5], over 100 µM; in test [6], over 54.1 µM. The TGI in test [7], in [8], in test [9] and in test [10] was over 100 µM each time.

Turning to `c1ccc(-c2nn(-c3ccccc3)[n+](-c3ccccc3-c3ccccc3)n2)cc1`, the GI50 in [1] was 0.461 µM; in test [2], 16.5 µM; in [3], 0.743 µM; in test [4], 0.205 µM; in test [5], 1.88 µM; in test [6], 0.532 µM. In addition, the GI50 in [7] is 0.683 µM; in test [8] it was 0.37 µM; in test [9] it was 2.02 µM; in test [10], 1.71 µM. The TGI in test [1] came to 7.87 µM; in test [2] it was 89.9 µM; in [3], 43.7 µM; in [4], 0.856 µM; in test [5] it was 31.5 µM; in [6], 11 µM. Besides, the TGI in [7] was 8.63 µM; in test [8], 6.18 µM; in test [9], 16.4 µM; in test [10], over 47.7 µM.

In the case of `Cc1cncc2cccc(S(=O)(=O)N3CCCNC[C@@H]3C)c12`, the GI50 is 4.04 µM in test [1]; 5.91 µM in test [2]; 20.3 µM in [3]; 2.85 µM in test [4]; 1.51 µM in test [5]; 15.2 µM in test [6]. The GI50 in test [7] is 31.5 µM; in test [8], 44.3 µM; in [9] it was 1.82 µM; in [10] it was 4.91 µM. In addition, the TGI in test [1] is 35.9 µM; in [2], over 100 µM; in [3] it was over 100 µM; in [4], 18.8 µM; in test [5], over 100 µM; in test [6], over 100 µM. Besides, the TGI in [7] was over 100 µM; in test [8] it was over 100 µM; in test [9], 19.8 µM; in [10], over 81.8 µM.

`COc1cc(C2CC(c3cc(Cl)c(C)cc3O)=NN2c2ccc(S(N)(=O)=O)cc2)cc(OC)c1OC` (stereo unspecified): the GI50 in [1] was 2.6 µM; in test [2], 2.55 µM; in test [3] it was 4.51 µM; in [4], 1.72 µM; in test [5], 2.21 µM; in test [6] it was 2.28 µM. For the same molecule, the GI50 in [7] was 2.11 µM; in test [8], 2.27 µM; in test [9], 2.9 µM; in test [10], 4.29 µM. In addition, the TGI in [1] is 7.01 µM; in test [2] it was 16.9 µM; in [3], over 100 µM; in test [4], 3.09 µM; in [5], 7.02 µM; in test [6] it was 5.1 µM. Also, the TGI in test [7] turned out to be 5.32 µM; in test [8], 8.94 µM; in test [9], 6.02 µM; in test [10] it was 34.2 µM.

On to `C[C@@H]1CC[C@H]2C(CN(C)CC3=C(C(F)(F)F)O[C@@H]4O[C@@]5(C)CC[C@H]6[C@H](C)CC[C@@H]3[C@@]46OO5)=C(C(F)(F)F)O[C@@H]3O[C@@]4(C)CC[C@@H]1[C@]32OO4`, for which the GI50 in test [1] is 14.3 µM; in test [2], 3.19 µM; in test [3], 1.31 µM; in [4], 0.728 µM; in test [5], 2.25 µM; in test [6], 0.381 µM. Further, the GI50 in test [7] is 0.818 µM; in test [8] it was 0.231 µM; in test [9], 2.83 µM; in test [10], 2.82 µM. Further, the TGI was 54.4 µM in test [1]; 18.2 µM in [2]; over 42.9 µM in [3]; over 100 µM in test [4]; 20.1 µM in [6]; 27 µM in [7]. For the same molecule, the TGI in test [8] is over 100 µM; in [9], over 100 µM; in [10] it was over 95.7 µM.

As to `COc1cc2cc(C(=O)N3C[C@H](CCl)c4c3cc(O)c3ccccc43)[nH]c2c(OC)c1OC`, the GI50 in [1] was 0.0312 µM; in test [2], under 0.01 µM; in test [3] it was under 0.01 µM; in [4], 0.118 µM; in [6], 0.0425 µM; in test [7], under 0.01 µM. In addition, the figures for the GI50 in test [8] and in test [10] were 0.0355 µM and 0.0169 µM, respectively. For the same molecule, the TGI in [1] was 1.56 µM and 0.46 µM; in test [3], 0.048 µM; in test [4] it was 1.8 µM and 0.483 µM; in test [5] it was 0.652 µM; in test [6], 0.677 µM and 1.37 µM; in test [7] it was 0.234 µM and 0.0927 µM. The TGI in test [8] was 2.27 µM and 18.9 µM; in test [9] it was 0.194 µM; in test [10] it was 0.563 µM and 4.99 µM.

As for `O=C1c2ccccc2-c2c1c1ccccc1c(=O)n2CCCNCCO`, the GI50 in [1] was 1.65 µM; in [2], 0.438 µM; in test [3], 0.165 µM; in test [4], 0.63 µM; in test [5] it was 0.589 µM; in [6] it was 0.485 µM. The GI50 is 0.818 µM in test [7], 0.752 µM in test [8], 0.585 µM in test [9] and 0.796 µM in test [10]. Also, the TGI in test [1] was 5.9 µM; in test [2], 3.34 µM; in test [3], 1.11 µM; in test [4], 3.75 µM; in test [5], 5.04 µM; in test [6], 4 µM. For the same molecule, the TGI in test [7] was determined as 4.97 µM; in test [8], 4.47 µM; in test [9], 4.03 µM; in test [10], 8.85 µM.

As to `Cc1cccc(Cc2cnc(NC(=O)/C=C/c3ccco3)s2)c1`, the GI50 in test [1] is 0.174 µM; in test [2], 0.0459 µM; in test [3] it was 0.0433 µM; in [4] it was 0.0438 µM; in test [5], 0.0313 µM; in test [6], 0.039 µM. Moreover, the GI50 is 0.108 µM in [7], 0.04 µM in test [8], 0.0221 µM in test [9] and 0.181 µM in [10]. Moreover, the TGI in [1] is over 100 µM; in test [2], over 100 µM; in test [3], over 100 µM; in [4] it was 1.23 µM; in test [5] it was over 100 µM; in test [6] it was over 100 µM. For the same molecule, the TGI in test [7] was over 100 µM; in test [8] it was over 100 µM; in test [9] it was 0.0643 µM; in [10] it was over 100 µM.

As to `COc1ccc(C(=O)C(CN(C)C)c2ccccc2)cc1` (stereo unspecified), the GI50 in [1] was 1.76 µM; in [2] it was 2.08 µM; in test [3] it was 1.84 µM; in [4] it was 2.26 µM; in [5], 1.95 µM; in test [6], 3.98 µM. The GI50 in [7] is 1.56 µM; in test [8], 4.6 µM; in test [9], 1.32 µM; in [10], 2.17 µM. Also, the TGI in [1] came out at 4.56 µM; in test [2], 7.82 µM; in test [3], 11.9 µM; in test [4], 4.21 µM; in [5] it was 6.17 µM; in test [6], 13.6 µM. Also, the TGI was 3.32 µM in [7], 17.4 µM in [8], 3.1 µM in [9] and 4.86 µM in [10].

Take `O=[N+]([O-])C1(CO)COC2(OC1)c1ccccc1-c1ccccc12`: the TGI in test [1] was over 88.2 µM; in [2], over 100 µM; in test [3], 71 µM; in test [4], over 82.4 µM; in test [5], over 100 µM; in test [6], over 100 µM. Besides, the TGI in test [7] was over 100 µM; in test [8], over 100 µM; in [9], over 69.1 µM; in test [10], over 93.2 µM.

`Nc1cc2ccncc2c2ccccc12`: the GI50 in test [1] was 23.9 µM; in test [2] it was 18.4 µM; in test [3], 12.6 µM; in [4] it was 6.89 µM; in test [5], 13.9 µM; in [6] it was 11.6 µM. For the same molecule, the GI50 in test [7] was 16.7 µM; in [8], 16.2 µM; in test [9], 10.8 µM; in test [10], 11.1 µM. Further, the TGI was over 100 µM in test [1]; over 100 µM in test [2]; 99.1 µM in [3]; 20.8 µM in test [4]; 40.4 µM in [5]; over 100 µM in [6]. Further, the TGI was 80.1 µM in test [7], over 100 µM in test [8], 29 µM in test [9] and 52.5 µM in test [10].

For `CCN1CCN(c2nc(NNC(=O)c3cccc(OC)c3)nc(N3CCN(C(c4ccccc4)c4ccccc4)CC3)n2)CC1`, the GI50 is 2.65 µM in test [1]; 1.54 µM in [2]; 2.6 µM in test [3]; 2.22 µM in [4]; 1.89 µM in test [5]; 2.28 µM in [6]. Also, the GI50 in test [7] is 1.92 µM; in [8] it was 2.24 µM; in test [9] it was 1.63 µM; in test [10] it was 1.95 µM. Also, the TGI in test [1] was 9.81 µM; in [2] it was 3.1 µM; in [3], over 100 µM; in [4] it was 5.55 µM; in test [5], 4.43 µM; in test [6], 5.48 µM. Further, the TGI in test [7] was 5.03 µM; in [8], 13.4 µM; in test [9], 3.1 µM; in test [10], 4.2 µM.

Consider `N#CSc1cc(-c2nc3ccccc3o2)ccc1N`, for which the GI50 in test [1] was 23.8 µM; in test [2], 25.5 µM; in test [3] it was 10.6 µM; in test [4], 40.5 µM; in test [5], 11.3 µM; in test [6], 6.54 µM. For the same molecule, the GI50 in [7] is 19.5 µM; in test [8], 12.5 µM; in [9], 0.965 µM; in test [10] it was 22.6 µM. Further, the TGI is over 60.9 µM in test [1]; 61.9 µM in [2]; 30.2 µM in test [3]; over 100 µM in test [4]; 63.6 µM in test [5]; 27.1 µM in test [6]. The TGI in test [7] was over 86.1 µM; in test [8], 81.6 µM; in [9], 26.3 µM; in [10], 83.4 µM.

As for `C=C(C)[C@@H]1CC[C@@H]2C(=CC[C@]3(C)C([C@H](C)CC/C=C(/C)C(=O)O)CC[C@@]23C)[C@@]1(C)CCC(=O)O` (stereo partly specified), the TGI was 51 µM in test [1]; 68.4 µM in [2]; 53.7 µM in test [3]; 39.9 µM in test [4]; over 100 µM in test [5]; 48.7 µM in [6]. Also, the TGI is 57.2 µM in test [7], 65.9 µM in test [8], 35.1 µM in test [9] and over 100 µM in [10].

Source of the values: PubChem BioAssay (NCI).
